Test results taken from ChEMBL document CHEMBL1121587, “Synthesis of some new S-alkylated derivatives of 5-mercapto-2'-deoxyuridine as potential antiviral agents” (1980).

System: HeLa
Experiment: Compound was evaluated for antiviral activity against Herpes simplex type 1 in HeLa TK- cells at 100 uM concentration
Format: functional, Homo sapiens

Row | SMILES | Virus titer [pfu/ml]
1 | C=CCSc1cnc(O)nc1O | 65000000
2 | C#CSc1cnc(O)nc1O | 37000000
3 | CSc1cn(O[C@H]2CC(O)[C@@H](CO)O2)c(=O)[nH]c1=O (stereo not given in full) | 5200000
4 | O=c1[nH]c(=O)n(O[C@H]2CC(O)[C@@H](CO)O2)cc1SCCO (stereo not given in full) | 38000000
5 | C=CCSc1cn(O[C@H]2CC(O)[C@@H](CO)O2)c(=O)[nH]c1=O (stereo not given in full) | 5300000
